Values quoted from earlier work in patent publication US8097602B1, “Method of treating body insect infestation” (Host Pharmaceuticals, LLC, priority 2008, dated 2012).

Settings: at 20° C.

Row | Substance | Surface Tension (dynes/cm)
1 | n-alkanes | 37.8^1 dynes/cm
2 | n-fluoroalkanes | 25.9^1 dynes/cm
